Results: the NIST ThermoML archive (doi:10.1021/acs.jced.8b00713)

Conditions: Liquid; for viscosity: Vibrating wire viscometry; for mass density: Vibrating tube method

FC(F)(F)/C=C\C(F)(F)F [(Z)-1,1,1,4,4,4-hexafluorobut-2-ene]
Conditions	mass density [kg/m3]	viscosity [mPa·s]
253.14 K, 15000 kPa	–	0.7477
253.14 K, 20000 kPa	–	0.7916
253.15 K, 100 kPa	–	0.6315
253.15 K, 5000 kPa	–	0.6695
253.15 K, 25000 kPa	–	0.8337
253.15 K, 30100 kPa	–	0.871
253.16 K, 1000 kPa	–	0.6387
253.16 K, 2000 kPa	–	0.647
253.16 K, 10000 kPa	–	0.7114
253.16 K, 40000 kPa	–	0.9576
263.14 K, 2000 kPa	–	0.5721
263.14 K, 5000 kPa	–	0.5916
263.14 K, 30000 kPa	–	0.7644
263.15 K, 100 kPa	–	0.5599
263.15 K, 1000 kPa	–	0.5656
263.15 K, 10000 kPa	–	0.6247
263.15 K, 15000 kPa	–	0.6579
263.15 K, 20000 kPa	–	0.6906
263.16 K, 25000 kPa	–	0.7286
263.16 K, 40000 kPa	–	0.8352
273.13 K, 100 kPa	–	0.493
273.13 K, 10000 kPa	–	0.5526
273.14 K, 1000 kPa	–	0.4975
273.14 K, 15000 kPa	–	0.584
273.14 K, 25000 kPa	–	0.643
273.14 K, 29700 kPa	–	0.6776
273.15 K, 5000 kPa	–	0.5227
273.15 K, 20000 kPa	–	0.6131
273.16 K, 2000 kPa	–	0.5035
273.16 K, 40000 kPa	–	0.7422
283.14 K, 15000 kPa	–	0.5206
283.14 K, 20000 kPa	–	0.547
283.15 K, 100 kPa	1402.57	–
283.15 K, 1000 kPa	1405.16	–
283.15 K, 2000 kPa	1408.09	0.446
283.15 K, 5000 kPa	1416.4	0.462
283.15 K, 10000 kPa	1429.39	0.49
283.15 K, 15000 kPa	1441.21	–
283.15 K, 20000 kPa	1452.25	–
283.15 K, 25000 kPa	1462.46	0.5731
283.15 K, 30000 kPa	1472	0.6009
283.15 K, 40000 kPa	1489.73	0.6578
283.15 K, 50000 kPa	1505.53	–
283.15 K, 60000 kPa	1520.01	–
283.15 K, 80000 kPa	1545.15	–
283.15 K, 100000 kPa	1566.76	–
283.16 K, 100 kPa	–	0.4357
283.17 K, 1000 kPa	–	0.4423
293.15 K, 100 kPa	1377.12	–
293.15 K, 1000 kPa	1380.09	0.3924
293.15 K, 2000 kPa	1383.27	0.3978
293.15 K, 5000 kPa	1392.34	–
293.15 K, 10000 kPa	1406.41	0.4385
293.15 K, 15000 kPa	1419.13	–
293.15 K, 15100 kPa	–	0.4651
293.15 K, 20000 kPa	1430.86	–
293.15 K, 25000 kPa	1441.76	0.5151
293.15 K, 30000 kPa	1451.97	0.5414
293.15 K, 40000 kPa	–	0.5919
293.15 K, 60000 kPa	1501.97	–
293.15 K, 80010 kPa	1528.17	–
293.15 K, 99990 kPa	1550.16	–
293.16 K, 200 kPa	–	0.388
293.16 K, 5000 kPa	–	0.4135
293.16 K, 20000 kPa	–	0.4904
293.16 K, 40000 kPa	1470.38	–
293.16 K, 50000 kPa	1486.98	–
303.14 K, 20000 kPa	–	0.441
303.15 K, 100 kPa	1351.47	–
303.15 K, 200 kPa	–	0.3454
303.15 K, 1000 kPa	1354.72	0.3494
303.15 K, 5000 kPa	–	0.3692
303.15 K, 10000 kPa	1383.63	–
303.15 K, 15000 kPa	1397.49	0.4173
303.15 K, 25000 kPa	1421.76	0.4647
303.15 K, 30000 kPa	1432.55	0.4879
303.15 K, 40000 kPa	–	0.5357
303.15 K, 50000 kPa	1469.43	–
303.15 K, 60000 kPa	1485.09	–
303.15 K, 80000 kPa	1512.19	–
303.15 K, 100010 kPa	1535.09	–
303.16 K, 2000 kPa	1358.24	0.3548
303.16 K, 5000 kPa	1368.33	–
303.16 K, 20000 kPa	1410.02	–
303.16 K, 40000 kPa	1452.02	–
303.17 K, 10000 kPa	–	0.3938
313.14 K, 1000 kPa	1327.46	–
313.14 K, 100010 kPa	1519.55	–
313.15 K, 500 kPa	1325.41	0.31
313.15 K, 1000 kPa	–	0.3121
313.15 K, 2000 kPa	1331.4	0.3173
313.15 K, 5000 kPa	1342.64	0.3312
313.15 K, 10000 kPa	1359.5	–
313.15 K, 15000 kPa	1374.49	0.3776
313.15 K, 20000 kPa	1388.16	0.3989
313.15 K, 25000 kPa	1400.64	0.421
313.15 K, 30000 kPa	1412.04	0.4431
313.15 K, 40000 kPa	1432.78	0.4866
313.15 K, 80010 kPa	1495.94	–
313.16 K, 10000 kPa	–	0.3543
313.16 K, 50000 kPa	1451.06	–
313.16 K, 60000 kPa	1467.37	–
323.14 K, 5000 kPa	1317.21	–
323.14 K, 10000 kPa	1335.83	–
323.14 K, 20000 kPa	–	0.3632
323.15 K, 500 kPa	1297.83	–
323.15 K, 1000 kPa	1300.12	–
323.15 K, 5000 kPa	–	0.2981
323.15 K, 10000 kPa	–	0.322
323.15 K, 15000 kPa	1352.25	0.3425
323.15 K, 20000 kPa	1366.96	–
323.15 K, 25000 kPa	1380.35	0.3839
323.15 K, 30000 kPa	1392.69	0.4043
323.15 K, 40000 kPa	1414.6	–
323.15 K, 50000 kPa	1433.91	–
323.15 K, 80010 kPa	1480.77	–
323.15 K, 100010 kPa	1505.41	–
323.16 K, 500 kPa	–	0.2776
323.16 K, 1000 kPa	–	0.28
323.16 K, 2000 kPa	1304.59	0.2844
323.16 K, 40000 kPa	–	0.445
323.16 K, 60000 kPa	1451.12	–
333.14 K, 500 kPa	–	0.2497
333.15 K, 1000 kPa	1271.96	0.2521
333.15 K, 5000 kPa	1291.31	0.2705
333.15 K, 10000 kPa	–	0.2917
333.15 K, 15000 kPa	–	0.3126
333.15 K, 20000 kPa	1346	0.3321
333.15 K, 25000 kPa	1360.41	0.3512
333.15 K, 30000 kPa	1373.57	0.3741
333.15 K, 40000 kPa	1396.93	0.41
333.15 K, 50000 kPa	1417.34	–
333.15 K, 60000 kPa	1435.25	–
333.15 K, 80000 kPa	1466.47	–
333.15 K, 100000 kPa	1492.09	–
333.16 K, 500 kPa	1269.32	–
333.16 K, 2000 kPa	1277.07	0.2568
333.16 K, 10000 kPa	1312.03	–
333.16 K, 15000 kPa	1330.02	–
343.15 K, 1000 kPa	–	0.2262
343.15 K, 2000 kPa	1248.57	0.2308
343.15 K, 5000 kPa	–	0.2443
343.15 K, 10000 kPa	–	0.2663
343.15 K, 15000 kPa	1307.63	0.2864
343.15 K, 20000 kPa	–	0.3054
343.15 K, 25000 kPa	–	0.3246
343.15 K, 30000 kPa	–	0.3429
343.15 K, 40000 kPa	1379.44	0.3794
343.15 K, 50000 kPa	1400.93	–
343.15 K, 60000 kPa	1419.91	–
343.15 K, 80000 kPa	1452.33	–
343.15 K, 100000 kPa	1478.79	–
343.16 K, 500 kPa	1239.61	0.224
343.16 K, 1000 kPa	1242.66	–
343.16 K, 5000 kPa	1264.73	–
343.16 K, 10000 kPa	1287.86	–
343.16 K, 20000 kPa	1324.98	–
343.16 K, 25000 kPa	1340.52	–
343.16 K, 30000 kPa	1354.59	–
353.14 K, 2000 kPa	–	0.2104
353.15 K, 1000 kPa	1211.33	–
353.15 K, 2000 kPa	1218.18	–
353.15 K, 5000 kPa	–	0.221
353.15 K, 10000 kPa	–	0.2419
353.15 K, 15000 kPa	1284.42	0.2623
353.15 K, 20000 kPa	–	0.2801
353.15 K, 25000 kPa	1320.02	–
353.15 K, 30000 kPa	1335.13	0.3157
353.15 K, 40000 kPa	1361.5	0.3504
353.15 K, 50000 kPa	1384.21	–
353.15 K, 60000 kPa	1404.05	–
353.15 K, 80010 kPa	1438.01	–
353.15 K, 100000 kPa	1465.73	–
353.16 K, 1000 kPa	–	0.2057
353.16 K, 5000 kPa	1236.75	–
353.16 K, 10000 kPa	1262.64	–
353.16 K, 20000 kPa	1303.28	–
353.16 K, 25000 kPa	–	0.2983
363.15 K, 1000 kPa	1177.46	–
363.15 K, 10000 kPa	1236.32	–
363.15 K, 25000 kPa	1298.98	–
363.15 K, 30000 kPa	1315.14	–
363.15 K, 60000 kPa	1387.96	–
363.15 K, 79990 kPa	1423.19	–
363.16 K, 2000 kPa	1185.52	–
363.16 K, 5000 kPa	1207.05	–
363.16 K, 15000 kPa	1260.38	–
363.16 K, 20000 kPa	1280.92	–
363.16 K, 40000 kPa	1343.17	–
363.16 K, 50000 kPa	1367.09	–
363.16 K, 100000 kPa	1451.81	–
373.15 K, 1000 kPa	1140.74	–
373.15 K, 5000 kPa	1175.78	–
373.15 K, 10020 kPa	1209.06	–
373.15 K, 15000 kPa	1235.47	–
373.15 K, 25000 kPa	1277.24	–
373.15 K, 30000 kPa	1294.44	–
373.15 K, 50000 kPa	1349.23	–
373.15 K, 60000 kPa	1370.99	–
373.15 K, 80010 kPa	1407.73	–
373.15 K, 100010 kPa	1437.36	–
373.16 K, 2000 kPa	1150.47	–
373.16 K, 20020 kPa	1257.86	–
373.16 K, 40000 kPa	1324.14	–
